Measured values: patent publication US20240016781A1, “TREATMENT OF KRAS MUTANT CANCERS” (MEI Pharma, Inc., priority 2020, published 2024)
Read-outs that look alike come from different tables or passages of the source.

Assays:
Test in all cases: 72-hour CellTiter-Glo 2.0 growth inhibition screen (single agent, 9x9 combination dose matrix);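 on Best CI Level: inhibition effect level at which the best CI was calculated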
Format in all cases: cell-based
NCI-H2030 = details: for Emax: NCI-H2030
NCI-H1373 = details: for Emax: NCI-H1373
Calu-1 = test system: Calu-1;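 on Best CI Level: inhibition effect level at which the best CI was calculated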
NCI-H23 = test system: NCI-H23;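 on Best CI Level: inhibition effect level at which the best CI was calculated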
NCI-H1792 = test system: NCI-H1792;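 on Best CI Level: inhibition effect level at which the best CI was calculated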
[1] = NCl-H2030 (KRAS G12C), enhancer + MEI-522 (Voruciclib), 72 h
[2] = NCl-H2030, Lung, Additional Single Agent Responses (inhibition, % I), 72 h
[3] = NCl-H2030, Lung, growth inhibition (GI), AUC, single agent, 72 h
[4] = enhancer combined with MEI-522 (Voruciclib), NCl-H2030 (Lung), 72 hours, inhibition data
[5] = NCl-H1373 (KRAS G12C), enhancer + MEI-522 (Voruciclib), 72 h
[6] = NCl-H1373, Lung, Additional Single Agent Responses (inhibition, % I), 72 h
[7] = NCl-H1373, Lung, growth inhibition (GI), AUC, single agent, 72 h
[8] = enhancer combined with MEI-522 (Voruciclib), NCl-H1373 (Lung), 72 hours, inhibition data
[9] = Calu-1 (KRAS G12C), enhancer + MEI-522 (Voruciclib), 72 h;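 on Best CI Level: inhibition effect level at which the best CI was calculated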
[10] = Calu-1, Lung, Additional Single Agent Responses (inhibition, % I), 72 h
[11] = Calu-1, Lung, growth inhibition (GI), AUC, single agent, 72 h
[12] = enhancer combined with MEI-522 (Voruciclib), Calu-1 (Lung), 72 hours, inhibition data
[13] = Homo sapiens, NCI-H23, NCl-H23, Lung, Additional Single Agent Responses (inhibition, % I), 72 h
[14] = NCl-H23 (KRAS G12C), enhancer + MEI-522 (Voruciclib), 72 h
[15] = NCl-H23, Lung, Additional Single Agent Responses (inhibition, % I), 72 h
[16] = NCl-H23, Lung, growth inhibition (GI), AUC, single agent, 72 h
[17] = enhancer combined with MEI-522 (Voruciclib), NCl-H23 (Lung), 72 hours, inhibition data
[18] = NCl-H1792 (KRAS G12C), enhancer + MEI-522 (Voruciclib), 72 h
[19] = NCl-H1792, Lung, Additional Single Agent Responses (inhibition, % I), 72 h
[20] = NCl-H1792, Lung, growth inhibition (GI), AUC, single agent, 72 h
[21] = enhancer combined with MEI-522 (Voruciclib), NCl-H1792 (Lung), 72 hours, inhibition data
[22] = NCl-H2030, Lung, growth inhibition (GI) curve, single agent, 72 h
[23] = NCl-H1373, Lung, growth inhibition (GI) curve, single agent, 72 h
[24] = Calu-1, Lung, growth inhibition (GI) curve, single agent, 72 h
[25] = NCl-H23, Lung, growth inhibition (GI) curve, single agent, 72 h
[26] = NCl-H1792, Lung, growth inhibition (GI) curve, single agent, 72 h

SMILES: C=CC(=O)N1CCN(c2nc(=O)n(-c3c(C)ccnc3C(C)C)c3nc(-c4c(O)cccc4F)c(F)cc23)[C@@H](C)C1 [AMG510]
- EC50 (NCI-H2030; Homo sapiens, NCI-H2030, 72 h, NCl-H2030, Lung, Additional Single Agent Responses (inhibition, % I), 72 h): 4.3 nM
- EC50 (NCI-H2030; Homo sapiens, NCI-H2030, 72 h, NCl-H2030, Lung, growth inhibition (GI) curve, single agent, 72 h): 4.4 nM
- Emax (NCI-H2030; Homo sapiens, NCl-H2030, Lung, Additional Single Agent Responses, 72 h, read-out: Max Response (% I)): 38%
- Emax (NCI-H2030; Homo sapiens, NCl-H2030, Lung, growth inhibition (GI), single agent, 72 h, read-out: Max Response (% GI)): 47%
- Best CI (NCI-H2030; [1]): 0.47
- Bliss Volume (NCI-H2030; [1]): 6.35
- HSA volume (NCI-H2030; [1]): 4.90
- Loewe Volume (NCI-H2030; [1]): 4.51
- Synergy Score (NCI-H2030; [1]): 5.13
- Response Area (NCI-H2030; [2]): 1.65
- Response Area (NCI-H2030; [3]): 2.05
- Best CI (NCI-H2030; [4]): 0.70
- Best CI Level (NCI-H2030; [4]): 50
- Bliss Volume (NCI-H2030; [4]): 1.77
- HSA volume (NCI-H2030; [4]): 3.51
- Loewe Volume (NCI-H2030; [4]): 3.26
- Synergy Score (NCI-H2030; [4]): 2.04
- EC50 (NCI-H1373; Homo sapiens, NCI-H1373, 72 h, NCl-H1373, Lung, Additional Single Agent Responses (inhibition, % I), 72 h): 2.5 nM
- EC50 (NCI-H1373; Homo sapiens, NCI-H1373, 72 h, NCl-H1373, Lung, growth inhibition (GI) curve, single agent, 72 h): 2.1 nM
- Emax (NCI-H1373; Homo sapiens, NCl-H1373, Lung, Additional Single Agent Responses, 72 h, read-out: Max Response (% I)): 49%
- Emax (NCI-H1373; Homo sapiens, NCl-H1373, Lung, growth inhibition (GI), single agent, 72 h, read-out: Max Response (% GI)): 65%
- Best CI (NCI-H1373; [5]): 0.28
- Bliss Volume (NCI-H1373; [5]): 2.91
- HSA volume (NCI-H1373; [5]): 1.67
- Loewe Volume (NCI-H1373; [5]): 2.62
- Synergy Score (NCI-H1373; [5]): 4.10
- Response Area (NCI-H1373; [6]): 2.05
- Response Area (NCI-H1373; [7]): 2.56
- Best CI (NCI-H1373; [8]): 0.93
- Best CI Level (NCI-H1373; [8]): 20
- Bliss Volume (NCI-H1373; [8]): −1.68
- HSA volume (NCI-H1373; [8]): 0.90
- Loewe Volume (NCI-H1373; [8]): 0.62
- Synergy Score (NCI-H1373; [8]): 1.25
- Best CI (Calu-1; [9]): 0.80
- Bliss Volume (Calu-1; [9]): 2.90
- HSA volume (Calu-1; [9]): 2.88
- Loewe Volume (Calu-1; [9]): 2.66
- Synergy Score (Calu-1; [9]): 4.52
- Response Area (Calu-1; [10]): 1.72
- Response Area (Calu-1; [11]): 2.29
- EC50 (Calu-1; Homo sapiens, Calu-1, 72 h, Calu-1, Lung, Additional Single Agent Responses (inhibition, % I), 72 h): 2.8 nM
- EC50 (Calu-1; Homo sapiens, Calu-1, 72 h, Calu-1, Lung, growth inhibition (GI) curve, single agent, 72 h): 2.9 nM
- Emax (Calu-1; Homo sapiens, Calu-1, Lung, Additional Single Agent Responses, 72 h, read-out: Max Response (% I)): 37%
- Emax (Calu-1; Homo sapiens, Calu-1, Lung, growth inhibition (GI), single agent, 72 h, read-out: Max Response (% GI)): 48%
- Best CI (Calu-1; [12]): 0.72
- Best CI Level (Calu-1; [12]): 55
- Bliss Volume (Calu-1; [12]): −0.15
- HSA volume (Calu-1; [12]): 1.55
- Loewe Volume (Calu-1; [12]): 1.28
- Synergy Score (Calu-1; [12]): 1.42
- EC50 (NCI-H23; [13]): 6.7 nM
- IC50 (NCI-H23; [13]): 157 nM
- Emax (NCI-H23; Homo sapiens, NCI-H23, NCl-H23, Lung, Additional Single Agent Responses, 72 h, read-out: Max Response (% I)): 56%
- GI50 (NCI-H23; Homo sapiens, NCI-H23, NCl-H23, Lung, growth inhibition (GI) curve, single agent, 72 h): 23.2 nM
- Emax (NCI-H23; Homo sapiens, NCI-H23, NCl-H23, Lung, growth inhibition (GI), single agent, 72 h, read-out: Max Response (% GI)): 71%
- Best CI (NCI-H23; [14]): 0.76
- Bliss Volume (NCI-H23; [14]): 8.97
- HSA volume (NCI-H23; [14]): 6.92
- Loewe Volume (NCI-H23; [14]): 6.28
- Synergy Score (NCI-H23; [14]): 8.27
- Response Area (NCI-H23; [15]): 2.82
- Response Area (NCI-H23; [16]): 3.60
- Best CI (NCI-H23; [17]): 0.53
- Best CI Level (NCI-H23; [17]): 80
- Bliss Volume (NCI-H23; [17]): 1.69
- HSA volume (NCI-H23; [17]): 4.54
- Loewe Volume (NCI-H23; [17]): 3.98
- Synergy Score (NCI-H23; [17]): 3.46
- EC50 (NCI-H1792; Homo sapiens, NCI-H1792, NCl-H1792, Lung, Additional Single Agent Responses (inhibition, % I), 72 h): 4.2 nM
- Emax (NCI-H1792; Homo sapiens, NCI-H1792, NCl-H1792, Lung, Additional Single Agent Responses, 72 h, read-out: Max Response (% I)): 29%
- Emax (NCI-H1792; Homo sapiens, NCI-H1792, NCl-H1792, Lung, growth inhibition (GI), single agent, 72 h, read-out: Max Response (% GI)): 37%
- Best CI (NCI-H1792; [18]): 0.36
- Bliss Volume (NCI-H1792; [18]): 5.76
- HSA volume (NCI-H1792; [18]): 3.59
- Loewe Volume (NCI-H1792; [18]): 4.64
- Synergy Score (NCI-H1792; [18]): 3.62
- Response Area (NCI-H1792; [19]): 1.05
- Response Area (NCI-H1792; [20]): 1.34
- Best CI (NCI-H1792; [21]): 0.46
- Bliss Volume (NCI-H1792; [21]): 2.25
- HSA volume (NCI-H1792; [21]): 2.86
- Loewe Volume (NCI-H1792; [21]): 3.31
- Synergy Score (NCI-H1792; [21]): 1.87
- Best CI Level (NCI-H1792; enhancer combined with MEI-522 (Voruciclib), NCl-H1792 (Lung), 72 hours, inhibition data, unit assumed): 35%

SMILES: CN1CC[C@@H](c2c(O)cc(O)c3c(=O)cc(-c4ccc(C(F)(F)F)cc4Cl)oc23)[C@@H]1CO [MEI-522(Voruciclib)]
- EC50 (NCI-H2030; [2]): 1050 nM
- IC50 (NCI-H2030; [2]): 1060 nM
- Response Area (NCI-H2030; [2]): 2.92
- Max Response (% I) (NCI-H2030; NCl-H2030, Lung, Additional Single Agent Responses, 72 h): 98 % I
- EC50 (NCI-H2030; [22]): 1680 nM
- GI50 (NCI-H2030; [22]): 1130 nM
- Response Area (NCI-H2030; [3]): 5.28
- Max Response (% GI) (NCI-H2030; NCl-H2030, Lung, growth inhibition (GI), single agent, 72 h): 188 % GI
- EC50 (NCI-H1373; [6]): 1030 nM
- IC50 (NCI-H1373; [6]): 1230 nM
- Response Area (NCI-H1373; [6]): 2.58
- Max Response (% I) (NCI-H1373; NCl-H1373, Lung, Additional Single Agent Responses, 72 h): 86 % I
- EC50 (NCI-H1373; [23]): 1390 nM
- GI50 (NCI-H1373; [23]): 972 nM
- Response Area (NCI-H1373; [7]): 4.24
- Max Response (% GI) (NCI-H1373; NCl-H1373, Lung, growth inhibition (GI), single agent, 72 h): 147 % GI
- EC50 (Calu-1; [10]): 1860 nM
- IC50 (Calu-1; [10]): 1980 nM
- Response Area (Calu-1; [10]): 2.48
- Max Response (% I) (Calu-1; Calu-1, Lung, Additional Single Agent Responses, 72 h): 90 % I
- EC50 (Calu-1; [24]): 2070 nM
- GI50 (Calu-1; [24]): 1680 nM
- Response Area (Calu-1; [11]): 4.35
- Max Response (% GI) (Calu-1; Calu-1, Lung, growth inhibition (GI), single agent, 72 h): 159 % GI
- EC50 (NCI-H23; [15]): 1130 nM
- IC50 (NCI-H23; [15]): 1180 nM
- Response Area (NCI-H23; [15]): 2.83
- Max Response (% I) (NCI-H23; NCl-H23, Lung, Additional Single Agent Responses, 72 h): 96 % I
- EC50 (NCI-H23; [25]): 1770 nM
- GI50 (NCI-H23; [25]): 1260 nM
- Response Area (NCI-H23; [16]): 5.00
- Max Response (% GI) (NCI-H23; NCl-H23, Lung, growth inhibition (GI), single agent, 72 h): 181 % GI
- EC50 (NCI-H1792; [19]): 1350 nM
- IC50 (NCI-H1792; [19]): 1360 nM
- Response Area (NCI-H1792; [19]): 2.83
- Max Response (% I) (NCI-H1792; NCl-H1792, Lung, Additional Single Agent Responses, 72 h): 98 % I
- EC50 (NCI-H1792; [26]): 1910 nM
- GI50 (NCI-H1792; [26]): 1440 nM
- Response Area (NCI-H1792; [20]): 5.24
- Max Response (% GI) (NCI-H1792; NCl-H1792, Lung, growth inhibition (GI), single agent, 72 h): 192 % GI
